Here are results for 24 compounds from patent US20170334899A1, “AMINO-SUBSTITUTED ISOTHIAZOLES” (Bayer Pharma Aktiengesellschaft, priority 2014, published 2017).

For test [1], the system named is human cervical tumor cell line HeLa (ATCC CCL-2). Nature of the test: SAC-Formation - Nocodazole-Induced Assay. As to conditions: Homo sapiens, HeLa, 24 h, HeLa cells, nocodazole 0.1 μg/ml together with test compound, decrease of mitotic cells (phospho-histone H3 Ser10). It counts as cell-based. The procedure, abridged: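 HeLa cells, plated overnight, were treated 24 h at 37 °C with nocodazole (0.1 μg/ml final) plus test compound (0.005–20 μM, 0.5% DMSO) added at the same time. After fixation, anti-phospho-histone H3 Ser10 and Hoechst staining gave the mitotic cell fraction by imaging. Values came from four-parameter Hill fits.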

The test system of a further test is HeLa. Put plainly: Proliferation assay (crystal violet), HeLa. The class given is cell-based. As to conditions: Homo sapiens, HeLa, 96 h, HeLa cells; 4 days incubation; crystal violet staining; read-out: IC50 inhibition of proliferation, HeLa. The procedure, abridged:
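Seed 1000–5000 cells/well, 10% FCS; 24 h later replace medium and add compound (0.001–10 μM, 0.5% DMSO); incubate 4 d; glutaraldehyde fix, 0.1% crystal violet pH 3.0, elute with 10% acetic acid; A595; 4-parameter IC50.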

For `Cc1nsc(Nc2cnc(C(F)(F)F)cn2)c1C(=O)Nc1ccc(OCCNCCF)nc1` [Example 321, N-(6-{2-[(2-fluoroethyl)amino]ethoxy}pyridin-3-yl)-3-methyl-5-{[5-(trifluoromethyl)pyrazin-2-yl]amino}-1,2-thiazole-4-carboxamide], the results for the IC50 (in test [1]; with HeLa) were 140 nM and 3400 nM, respectively.

`Cc1nsc(Nc2cc(C#N)ccn2)c1C(=O)Nc1ccc(OC2CCN(C(=O)OC(C)(C)C)CC2)nc1` [Example 23, tert-Butyl 4-({5-[({5-[(4-cyanopyridin-2-yl)amino]-3-methyl-1,2-thiazol-4-yl}-carbonyl)amino]pyridin-2-yl}oxy)piperidine-1-carboxylate]: the IC50 in test [1] was determined as 49 nM; in the test on HeLa, 2600 nM.

For the compound `Cc1nsc(Nc2cncc(C(F)(F)F)n2)c1C(=O)Nc1ccc(F)c(OC2CCN(CC(F)F)CC2)c1` [Example 268, N-(3-{[1-(2,2-difluoroethyl)piperidin-4-yl]oxy}-4-fluorophenyl)-3-methyl-5-{[6-(trifluoromethyl)pyrazin-2-yl]amino}-1,2-thiazole-4-carboxamide], the values for the IC50 (in test [1]; in the test on HeLa) were 38 nM and 310 nM, respectively.

Regarding `Cc1nsc(Nc2cnc(C(F)(F)F)cn2)c1C(=O)Nc1ccc(OCCO)nc1` [Example 277, N-[6-(2-hydroxyethoxy)pyridin-3-yl]-3-methyl-5-{[5-(trifluoromethyl)pyrazin-2-yl]amino}-1,2-thiazole-4-carboxamide], the results for the IC50 (in test [1]; in the test on HeLa) were 650 nM and 3200 nM, respectively.

As for `Cc1nsc(Nc2cc(C#N)ccn2)c1C(=O)Nc1ccc(OC2CCN(CC(F)(F)F)CC2)nc1` [Example 25, 5-[(4-Cyanopyridin-2-yl)amino]-3-methyl-N-(6-{[1-(2,2,2-trifluoroethyl)piperidin-4-yl]oxy}pyridin-3-yl)-1,2-thiazole-4-carboxamide], the IC50 was 16 nM in test [1] and 2100 nM in the test on HeLa.

Regarding `Cc1nsc(Nc2cc(C#N)ccn2)c1C(=O)Nc1ccc(OC2CCN(CC(F)F)CC2)nc1` [Example 263, 5-[(4-cyanopyridin-2-yl)amino]-N-(6-{[1-(2,2-difluoroethyl)piperidin-4-yl]oxy}pyridin-3-yl)-3-methyl-1,2-thiazole-4-carboxamide], the IC50 in test [1] came to 920 nM; with HeLa it was 3200 nM.

With `Cc1nsc(Nc2cnc(C(F)(F)F)cn2)c1C(=O)Nc1ccc(F)c(OCC2CCN(CC(F)(F)F)CC2)c1` [Example 310, N-(4-fluoro-3-{[1-(2,2,2-trifluoroethyl)piperidin-4-yl]methoxy}phenyl)-3-methyl-5-{[5-(trifluoromethyl)pyrazin-2-yl]amino}-1,2-thiazole-4-carboxamide], the IC50 in test [1] is 59 nM; in the test with HeLa, 230 nM.

On to `Cc1nsc(Nc2cnc(C(F)(F)F)cn2)c1C(=O)Nc1ccc(F)c(OCC2CCN(CCC(F)(F)F)CC2)c1` [Example 311, N-(4-fluoro-3-{[1-(3,3,3-trifluoropropyl)piperidin-4-yl]methoxy}phenyl)-3-methyl-5-{[5-(trifluoromethyl)pyrazin-2-yl]amino}-1,2-thiazole-4-carboxamide], for which the figures for the IC50 (in test [1]; in the test with HeLa) were 130 nM and 330 nM, respectively.

Consider `Cc1nsc(Nc2cnc(C(F)(F)F)cn2)c1C(=O)Nc1ccc(OC2CCN(CC(F)(F)F)C2)nc1` (stereo not drawn) [Example 297, 3-methyl-N-(6-{[1-(2,2,2-trifluoroethyl)pyrrolidin-3-yl]oxy}pyridin-3-yl)-5-{[5-(trifluoromethyl)pyrazin-2-yl]amino}-1,2-thiazole-4-carboxamide], for which the values for the IC50 (in test [1]; in the test on HeLa) were 80 nM and 350 nM, respectively.

Turning to `Cc1nsc(Nc2cnc(C(F)(F)F)cn2)c1C(=O)Nc1ccc(F)c(OC2CCN(CC(F)F)C2)c1` (stereo not drawn) [Example 314, N-(3-{[1-(2,2-difluoroethyl)pyrrolidin-3-yl]oxy}-4-fluorophenyl)-3-methyl-5-{[5-(trifluoromethyl)pyrazin-2-yl]amino}-1,2-thiazole-4-carboxamide], the IC50 in test [1] is 53 nM; in the test on HeLa, 410 nM.

For `Cc1nsc(Nc2cnc3ccccc3n2)c1C(=O)Nc1cccc(NS(=O)(=O)C2CCN(CC(F)(F)F)C2)c1` (stereo not drawn) [Example 289, 3-methyl-5-(quinoxalin-2-ylamino)-N-[3-({[1-(2,2,2-trifluoroethyl)pyrrolidin-3-yl]sulfonyl}amino)phenyl]-1,2-thiazole-4-carboxamide], the IC50 in test [1] stood at 1900 nM; in the test on HeLa, 7800 nM.

Turning to `Cc1nsc(Nc2cncc(C(F)(F)F)n2)c1C(=O)Nc1ccc(F)c(OC2CCN(CCF)CC2)c1` [Example 269, N-(4-fluoro-3-{[1-(2-fluoroethyl)piperidin-4-yl]oxy}phenyl)-3-methyl-5-{[6-(trifluoromethyl)pyrazin-2-yl]amino}-1,2-thiazole-4-carboxamide], the IC50 came to 120 nM in test [1] and 840 nM with HeLa.

With `Cc1nsc(Nc2cnc(C(F)(F)F)cn2)c1C(=O)Nc1ccc(N(C)C)c(OCCCN(C)CC(F)(F)F)c1` [Example 299, N-[4-(dimethylamino)-3-{3-[methyl(2,2,2-trifluoroethyl)amino]propoxy}phenyl]-3-methyl-5-{[5-(trifluoromethyl)pyrazin-2-yl]amino}-1,2-thiazole-4-carboxamide], the values for the IC50 (in test [1]; in the test with HeLa) were 210 nM and 260 nM, respectively.

Take `Cc1nsc(Nc2cncc(C(F)(F)F)n2)c1C(=O)Nc1ccc(OC2CCN(CCC(F)(F)F)CC2)nc1` [Example 304, 3-methyl-5-{[6-(trifluoromethyl)pyrazin-2-yl]amino}-N-(6-{[1-(3,3,3-trifluoropropyl)piperidin-4-yl]oxy}pyridin-3-yl)-1,2-thiazole-4-carboxamide]: the IC50 is 130 nM in test [1] and 360 nM with HeLa.

As for `Cc1nsc(Nc2cnc(C(F)(F)F)cn2)c1C(=O)Nc1ccc(F)c(OC2CCN(CC(F)F)CC2)c1` [Example 265, N-(3-{[1-(2,2-difluoroethyl)piperidin-4-yl]oxy}-4-fluorophenyl)-3-methyl-5-{[5-(trifluoromethyl)pyrazin-2-yl]amino}-1,2-thiazole-4-carboxamide], the results for the IC50 (in test [1]; in the test on HeLa) were 190 nM and 320 nM, respectively.

Consider `Cc1nsc(Nc2cnc(C(F)(F)F)cn2)c1C(=O)Nc1ccc(OCCNCC(F)F)nc1` [Example 305, N-(6-{2-[(2,2-difluoroethyl)amino]ethoxy}pyridin-3-yl)-3-methyl-5-{[5-(trifluoromethyl)pyrazin-2-yl]amino}-1,2-thiazole-4-carboxamide], for which the IC50 was 510 nM in test [1] and 1100 nM in the test with HeLa.

As to `Cc1nsc(Nc2cncc(C(F)(F)F)n2)c1C(=O)Nc1ccc(OCCO)nc1` [Example 276, N-[6-(2-hydroxyethoxy)pyridin-3-yl]-3-methyl-5-{[6-(trifluoromethyl)pyrazin-2-yl]amino}-1,2-thiazole-4-carboxamide], the IC50 in test [1] turned out to be 350 nM; in the test on HeLa it was 4900 nM.

`CCN1CCN(C(=O)c2ccc(NC(=O)c3c(C)nsc3Nc3cnc(C(F)(F)F)cn3)cc2)CC1` [Example 261, N-{4-[(4-ethylpiperazin-1-yl)carbonyl]phenyl}-3-methyl-5-{[5-(trifluoromethyl)pyrazin-2-yl]amino}-1,2-thiazole-4-carboxamide]: the IC50 in test [1] is 1100 nM; in the test with HeLa, 4800 nM.

`Cc1nsc(Nc2ccc(C#N)cn2)c1C(=O)Nc1cccc(C(=O)NC(C)C)c1` [Example 255, 5-[(5-cyanopyridin-2-yl)amino]-N-[3-(isopropylcarbamoyl)phenyl]-3-methyl-1,2-thiazole-4-carboxamide]: the values for the IC50 (in test [1]; in the test with HeLa) were 3700 nM and 6100 nM, respectively.

As for `Cc1nsc(Nc2cnc(C(F)(F)F)cn2)c1C(=O)Nc1ccc(C(=O)NC2CCN(CC(F)F)CC2)cc1` [Example 259, N-(4-{[1-(2,2-difluoroethyl)piperidin-4-yl]carbamoyl}phenyl)-3-methyl-5-{[5-(trifluoromethyl)pyrazin-2-yl]amino}-1,2-thiazole-4-carboxamide], the figures for the IC50 (in test [1]; in the test with HeLa) were 400 nM and greater than 10000 nM, respectively.

For the compound `COC(=O)CCc1cccc(NC(=O)c2c(C)nsc2Nc2cnc3ccccc3n2)c1` [Example 257, methyl 3-[3-({[3-methyl-5-(quinoxalin-2-ylamino)-1,2-thiazol-4-yl]carbonyl}amino)phenyl]propanoate], the IC50 in test [1] came out at 550 nM; in the test with HeLa, 7700 nM.

Consider `Cc1nsc(Nc2cnc(C(F)(F)F)cn2)c1C(=O)Nc1ccc(C(=O)NC2CN(CC(F)F)C2)cc1` [Example 271, N-(4-{[1-(2,2-difluoroethyl)azetidin-3-yl]carbamoyl}phenyl)-3-methyl-5-{[5-(trifluoromethyl)pyrazin-2-yl]amino}-1,2-thiazole-4-carboxamide], for which the IC50 in test [1] is 1100 nM; in the test on HeLa, 9400 nM.

`Cc1nsc(Nc2cnc3ccccc3n2)c1C(=O)Nc1cccc(NS(=O)(=O)C2CN(CC(F)(F)F)C2)c1` [Example 285, 3-methyl-5-(quinoxalin-2-ylamino)-N-[3-({[1-(2,2,2-trifluoroethyl)azetidin-3-yl]sulfonyl}amino)phenyl]-1,2-thiazole-4-carboxamide]: the figures for the IC50 (in test [1]; with HeLa) were 2200 nM and greater than 10000 nM, respectively.

For the compound `Cc1nsc(Nc2cnc(C(F)(F)F)cn2)c1C(=O)Nc1ccc(C(=O)N2CCN(CC(F)(F)F)CC2)cc1` [Example 260, 3-methyl-N-(4-{[4-(2,2,2-trifluoroethyl)piperazin-1-yl]carbonyl}phenyl)-5-{[5-(trifluoromethyl)pyrazin-2-yl]amino}-1,2-thiazole-4-carboxamide], the IC50 in test [1] is 87 nM; with HeLa, 1500 nM.
